Laboratory results taken from patent publication US5364861A, “Optical isomers of 7-[3-(1,1-dialkylmethyl-1-amino-1-pyrrolidinyl]-quinolones and naphthyridones as antibacterial agents” (Warner-Lambert Company, priority 1993, dated 1994).
Values after ≈ are worked out from the molar mass of the structure shown. Where a name gives a salt, the structure may show the parent alone. Read-outs that look alike come from different tables or passages of the source.

Experiments:
Strep. faecalis MGH-2 = experiment: in vitro antibacterial activity, microtitration dilution (MIC), Strep. faecalis MGH-2; assay type: cell-based; details: Enterococcus faecalis, MGH2, read-out: minimum inhibiting concentration (MIC)
Text: (§1) The in vitro antibacterial activity is obtained when tested by the microtitration dilution method as described in Heifetz, et al., Antimicr. Agents & Chemother. 1974;6:124, which is incorporated herein by reference.
(§2) By use of the above methods, the following minimum inhibiting concentration values (MICs in μg/ml), PD50 's in mg/kg, no effect phototoxicity dose in mg/kg and the cytotoxicity IC50 in μg/mL were obtained for representative enantiomers of the invention and compounds of the prior art as shown in the table.

Esch. coli Vogel [1] = experiment: in vitro antibacterial activity, microtitration dilution (MIC), Esch. coli Vogel; assay type: cell-based; details: Escherichia coli, read-out: minimum inhibiting concentration (MIC)
Text: as §1, §2

Strep. pyogenes C-203 [2] = experiment: in vitro antibacterial activity, microtitration dilution (MIC), Strep. pyogenes C-203; assay type: cell-based; details: Streptococcus pyogenes, C203, read-out: minimum inhibiting concentration (MIC)
Text: as §1, §2

Ent. cloacae MA2646 = experiment: in vitro antibacterial activity, microtitration dilution (MIC), Ent. cloacae MA2646; assay type: cell-based; details: Enterobacter cloacae, read-out: minimum inhibiting concentration (MIC)
Text: as §1, §2

Staph. aureus H 228 = experiment: in vitro antibacterial activity, microtitration dilution (MIC), Staph. aureus H 228; assay type: cell-based; details: Staphylococcus aureus, H228, read-out: minimum inhibiting concentration (MIC)
Text: as §1, §2

Pseud. aeruginosa UI-18 [3] = experiment: in vitro antibacterial activity, microtitration dilution (MIC), Pseud. aeruginosa UI-18; assay type: cell-based; details: Pseudomonas aeruginosa, UI18, read-out: minimum inhibiting concentration (MIC)
Text: as §1, §2

Prot. rettgeri M 1771 = experiment: in vitro antibacterial activity, microtitration dilution (MIC), Prot. rettgeri M 1771; assay type: cell-based; details: Providencia rettgeri, M1771, read-out: minimum inhibiting concentration (MIC)
Text: as §1, §2

Klebs. pneumoniae MGH-2 = experiment: in vitro antibacterial activity, microtitration dilution (MIC), Klebs. pneumoniae MGH-2; assay type: cell-based; details: Klebsiella pneumoniae, MGH2, read-out: minimum inhibiting concentration (MIC)
Text: as §1, §2

Strep. pneumoniae SV-1 = experiment: in vitro antibacterial activity, microtitration dilution (MIC), Strep. pneumoniae SV-1; assay type: cell-based; details: Streptococcus pneumoniae, SV1, read-out: minimum inhibiting concentration (MIC)
Text: as §1, §2

Staph. aureus UC-76 = experiment: in vitro antibacterial activity, microtitration dilution (MIC), Staph. aureus UC-76; assay type: cell-based; details: Staphylococcus aureus, UC76, read-out: minimum inhibiting concentration (MIC)
Text: as §1, §2

Strep. pyogenes C-203 [4] = experiment: median protective dose in mice given lethal systemic infection, Strep. pyogenes; assay type: in vivo; details: Streptococcus pyogenes, C203, Strep. pyogenes, single dose at time of challenge, route not given, read-out: median protective dose (PD50)
Method: (§3) The in vivo activity is obtained when the compounds are tested according to the procedure of Miller, et al (Proc. Soc. Exp. Biol. Med. 1944;57:261). The median protective dose (PD50) was determined in mice given lethal systemic infections. Single doses of compound were given at time of challenge.
as §2
(§4) The in vivo data as PD50 's are reported below the line of MICs for the same compound.

Esch. coli Vogel [5] = experiment: median protective dose in mice given lethal systemic infection, Esch. coli; assay type: in vivo; details: Escherichia coli, single dose at time of challenge, route not given, read-out: median protective dose (PD50)
Method: as §3, §2, §4

[6] = cytotoxicity, colony reduction of hamster V-79 cells; assay type: cell-based; details: 3 hours treatment, colonies counted after 5 days, read-out: cytotoxicity IC50 (Cytotox)
Method: The cytotoxicity data is obtained using hamster V-79 cells. The cells were suspended in tissue culture medium and grown overnight. Cells were treated with drug for 3 hours, washed free of drug and then replated, and the colonies counted after 5 days. The concentration of drug that reduced colonies by 50% relative to control was recorded.
as §2

Pseud. aeruginosa UI-18 [7] = experiment: median protective dose in mice given lethal systemic infection, Pseud. aeruginosa; assay type: in vivo; details: Pseudomonas aeruginosa, UI18, Pseud. aeruginosa, single dose at time of challenge, route not given, read-out: median protective dose (PD50)
Method: as §3, §2, §4

in vivo = experiment: in vivo; design: species or system mice; details: mouse, po
Method: The phototoxicity data is obtained using depilated mice. Compound was administered orally each day for four successive days, followed each day by 3 hours of […] radiation. The mice were examined for any positive signs (redness, erythema) relative to control animals. The no effect dose and the 50% effect dose were determined. By use of the above methods, the following minimum inhibiting concentration values (MICs in μg/ml), PD50 's in mg/kg, no effect phototoxicity dose in mg/kg and the cytotoxicity IC50 in μg/mL were obtained for representative enantiomers of the invention and compounds of the prior art as shown in the table.

Compound: CC(C)(N)[C@H]1CCN(c2c(F)cc3c(=O)c(C(=O)O)cn(C4CC4)c3c2Cl)C1 [Example 1, (S)-7-[3-(1-Amino-1-methylethyl)-1-pyrrolidinyl]-8-chloro-1-cyclopropyl-6-fluoro-1,4-dihydro-4-oxo-3-quinolinecarboxylic acid, monohydrochloride]
- MIC (Strep. faecalis MGH-2): 0.05 µg/mL
- MIC (Esch. coli Vogel [1]): 0.1 µg/mL
- MIC (Strep. pyogenes C-203 [2]): 0.025 µg/mL
- MIC (Ent. cloacae MA2646): 0.1 µg/mL
- MIC (Staph. aureus H 228): 0.025 µg/mL
- MIC (Pseud. aeruginosa UI-18 [3]): 1.6 µg/mL
- MIC (Prot. rettgeri M 1771): 0.4 µg/mL
- MIC (Klebs. pneumoniae MGH-2): 0.2 µg/mL
- MIC (Strep. pneumoniae SV-1): 0.013 µg/mL
- MIC (Staph. aureus UC-76): 0.013 µg/mL
- ED50 (Strep. pyogenes C-203 [4]; first line below the MICs): 13 mg/kg
- ED50 (Strep. pyogenes C-203 [4]; second line below the MICs): 4 mg/kg
- ED50 (Esch. coli Vogel [5]; first line below the MICs): 27 mg/kg
- ED50 (Esch. coli Vogel [5]; second line below the MICs): 4 mg/kg

Compound: CC(C)(N)[C@@H]1CCN(c2c(F)cc3c(=O)c(C(=O)O)cn(C4CC4)c3c2Cl)C1 [Example 2, (R)-7-[3-(1-Amino-1-methylethyl-1-pyrrolidinyl]-8-chloro-1-cyclopropyl-6-fluoro-1,4-dihydro-4-oxo-3-quinolinecarboxylic acid, monohydrochloride]
- MIC (Strep. faecalis MGH-2): 0.013 µg/mL
- CC50 at 3 h [6]: 8 µg/mL
- MIC (Esch. coli Vogel [1]): 0.05 µg/mL
- MIC (Strep. pyogenes C-203 [2]): ≤ 0.003 µg/mL
- MIC (Ent. cloacae MA2646): 0.05 µg/mL
- MIC (Staph. aureus H 228): 0.006 µg/mL
- ED50 (Pseud. aeruginosa UI-18 [7]; first line below the MICs): 100 mg/kg
- ED50 (Pseud. aeruginosa UI-18 [7]; second line below the MICs): 17 mg/kg
- MIC (Pseud. aeruginosa UI-18 [3]): 0.8 µg/mL
- MIC (Prot. rettgeri M 1771): 0.2 µg/mL
- MIC (Klebs. pneumoniae MGH-2): 0.1 µg/mL
- MIC (Strep. pneumoniae SV-1): ≤ 0.003 µg/mL
- MIC (Staph. aureus UC-76): ≤ 0.003 µg/mL
- ED50 (Strep. pyogenes C-203 [4]; first line below the MICs): 2 mg/kg
- ED50 (Strep. pyogenes C-203 [4]; second line below the MICs): 0.14 mg/kg
- ED50 (Esch. coli Vogel [5]; first line below the MICs): 8 mg/kg
- ED50 (Esch. coli Vogel [5]; second line below the MICs): 1 mg/kg

Compound: CC(C)(N)[C@H]1CCN(c2nc3c(cc2F)c(=O)c(C(=O)O)cn3C2CC2)C1.Cl [Example 3, (S)-7-[3-(1-Amino-1-methylethyl)-1-pyrrolidinyl]-1-cyclopropyl-6-fluoro-1,4-dihydro-4-oxo-1,8-naphthyridine-3-carboxylic acid, monohydrochloride]
- MIC (Strep. faecalis MGH-2): 0.1 µg/mL
- CC50 at 3 h [6]: 58 µg/mL
- MIC (Esch. coli Vogel [1]): 0.2 µg/mL
- MIC (Strep. pyogenes C-203 [2]): 0.1 µg/mL
- MIC (Ent. cloacae MA2646): 0.2 µg/mL
- MIC (Staph. aureus H 228): 0.1 µg/mL
- MIC (Pseud. aeruginosa UI-18 [3]): 3.1 µg/mL
- MIC (Prot. rettgeri M 1771): 0.8 µg/mL
- NOAEL (in vivo): 30 mg/kg
- MIC (Klebs. pneumoniae MGH-2): 0.4 µg/mL
- MIC (Strep. pneumoniae SV-1): 0.05 µg/mL
- MIC (Staph. aureus UC-76): 0.025 µg/mL
- ED50 (Strep. pyogenes C-203 [4]; first line below the MICs): 32 mg/kg
- ED50 (Strep. pyogenes C-203 [4]; second line below the MICs): 7 mg/kg
- ED50 (Esch. coli Vogel [5]; first line below the MICs): 10 mg/kg
- ED50 (Esch. coli Vogel [5]; second line below the MICs): 3 mg/kg

Compound: CNC(C)(C)[C@@H]1CCN(c2c(F)cc3c(=O)c(C(=O)O)cn(C4CC4)c3c2Cl)C1 [Example 6, (R)-08-Chloro-1-cyclopropyl-6-fluoro-1,4-dihydro-7-{3-[1-methyl-1-(methylamino)ethyl]-1-pyrrolidinyl}-4-oxo-3-quinolinecarboxylic acid, monohydrochloride]
- MIC (Strep. faecalis MGH-2): 0.025 µg/mL
- MIC (Esch. coli Vogel [1]): 0.2 µg/mL
- MIC (Strep. pyogenes C-203 [2]): ≤ 0.003 µg/mL
- MIC (Ent. cloacae MA2646): 0.2 µg/mL
- MIC (Staph. aureus H 228): 0.013 µg/mL
- MIC (Pseud. aeruginosa UI-18 [3]): 3.1 µg/mL
- MIC (Prot. rettgeri M 1771): 0.4 µg/mL
- MIC (Klebs. pneumoniae MGH-2): 0.4 µg/mL
- MIC (Strep. pneumoniae SV-1): ≤ 0.003 µg/mL
- MIC (Staph. aureus UC-76): ≤ 0.003 µg/mL
- ED50 (Strep. pyogenes C-203 [4]; first line below the MICs): 3 mg/kg
- ED50 (Strep. pyogenes C-203 [4]; second line below the MICs): 0.5 mg/kg
- ED50 (Esch. coli Vogel [5]; first line below the MICs): 11 mg/kg
- ED50 (Esch. coli Vogel [5]; second line below the MICs): 2 mg/kg

Compound: COc1c(N2CC[C@@H](C(C)(C)N)C2)c(F)cc2c(=O)c(C(=O)O)cn(C3CC3)c12 [Example 7, (R)-7-[3-(1-Amino-1-methylethyl)-1-pyrrolidinyl]-1-cyclopropyl-6-fluoro-1,4-dihydro-8-methoxy-4-oxo-3-quinolinecarboxylic acid]
- MIC (Strep. faecalis MGH-2): 0.013 µg/mL (≈ 0.0322 µM)
- CC50 at 3 h [6]: 18 µg/mL (≈ 44.6 µM)
- MIC (Esch. coli Vogel [1]): 0.1 µg/mL (≈ 0.248 µM)
- MIC (Strep. pyogenes C-203 [2]): < 0.003 µg/mL
- MIC (Ent. cloacae MA2646): 0.1 µg/mL (≈ 0.248 µM)
- MIC (Staph. aureus H 228): 0.013 µg/mL (≈ 0.0322 µM)
- MIC (Pseud. aeruginosa UI-18 [3]): 1.6 µg/mL (≈ 3.97 µM)
- MIC (Prot. rettgeri M 1771): 0.4 µg/mL (≈ 0.991 µM)
- MIC (Klebs. pneumoniae MGH-2): 0.2 µg/mL (≈ 0.496 µM)
- MIC (Strep. pneumoniae SV-1): ≤ 0.003 µg/mL
- MIC (Staph. aureus UC-76): ≤ 0.003 µg/mL
- ED50 (Strep. pyogenes C-203 [4]; first line below the MICs): 3 mg/kg
- ED50 (Strep. pyogenes C-203 [4]; second line below the MICs): 0.8 mg/kg
- ED50 (Esch. coli Vogel [5]; first line below the MICs): 26 mg/kg
- ED50 (Esch. coli Vogel [5]; second line below the MICs): 3 mg/kg
